Experimental data taken from patent US20100055047A1, “Methods for treating bronchial premalignancy and lung cancer” (priority 2008, published 2010).
Converted amounts (≈) assume the structure as drawn.

Key:
[1] = test system: orthotopic human NSCLC xenograft H460 in nude mice; experiment: Antitumor efficacy, orthotopic H460 NSCLC xenograft; assay type: in vivo
Description: (§1) Antitumor efficacy. In order to evaluate the antitumor efficacy of the airway administered demethylating agent and to compare the result with systemic treatment, orthotopic human NSCLC xenograft models in nude mice were developed by inoculating the tumor cells in the respiratory airway (35,36). In the first experiment, the mice bearing lung tumors were randomly divided into 3 groups with 5 mice in each. Ten days after the H460 tumor inoculation, one group of mice were treated with intratracheal injection of 2.5 mg/kg of 5-azacytidine every other day for 3 injections, another group of mice were treated with IV injections of 6.25 mg/kg every day for 6 injections via tail vein, and the last group of mice remained untreated. […] The median survival is 50, 80 and >109 days for no treatment, IV 5Aza, and IT 5Aza group, respectively (FIG. 5-2). The similar results were obtained from another experiment using an orthotopic H358 NSCLC model. In the second experiment, the treatment schedules and doses were the same as the first experiment. The median survival is 60, 73, and 98 days for no treatment, IV 5Aza, and IT 5Aza group, respectively (FIG. 5-3). In both experiments, the differences between IT 5Aza and IV 5Aza are statistically significant (p<0.01).

[2] = test system: Human NSCLC cell lines H358, H460, and A549; experiment: Cytotoxicity by MTT assay; assay type: cell-based; conditions: 72 h, 3 days exposure, range over the cell lines, read-out: IC50 (concentration inhibiting 50 percent cell growth)
Description: Cytotoxicity of 5-azacytidine. Human NSCLC cell lines H358, H460, and A549 were exposed to different concentrations of 5-azacytidine in a 96-well plate for 3 days. The cytotoxicity was measured by MTT assay.

lung cancer patients = conditions: intravenous or subcutaneous, not aerosol; one of the largest studies; transient; cited from earlier work
[3] = Dose finding: lethal toxicity and MTD; assay type: in vivo, mice; conditions: female, nude, mouse, in vivo, maximum dose causing 0% death, read-out: MTD (total dose)
Description: (§2) Dose finding. In order to use optimal therapeutic dose, the lethal toxicity and MTD for intratracheal injection (mimicking aerosol, IT) and intravenous injection (mimicking current most frequently used intravenous infusion and injection, IV) routes were determined in mice before the therapeutic experiment. Briefly, the nude mice (female, 6 weeks age) were inoculated with 4×10^6H460 cells intratracheally. One week later, they were randomly divided into several groups with 5 mice in each. Different groups of mice received different doses of IT 5Aza (range from 2.5 to 50 mg/kg qod×3) or IV 5Aza (range from 6.25 to 50 mg/k daily×6). The percentage of moribund mice in each group versus dose was used to simulate the dose response curves and determined the MTD. The maximum dose caused 0% death was defined as MTD. Under these experimental conditions, the MTD for both IT and IV 5Aza was 37.5 mg/kg or 112.5 mg/m^2 (total dose, FIG. 5-1). In considering the cytotoxicity results and the aerosol efficiency, 20% of IT MTD and 100% of IV MTD were used for the therapeutic studies.

[4] = test system: nude mice inoculated with H460 cells intratracheally; experiment: Dose finding: lethal toxicity and MTD; assay type: in vivo; conditions: maximum dose causing 0% death
Description: as §2

in vivo = conditions: ICR, mouse, in vivo, iv
Description: (§3) Acute toxicity. The dose limiting toxicity of intravenous 5-azacytidine or decitabine is severe myelosuppression. In order to test whether aerosol or intratracheal injection can reduce the myelotoxicity or alter the toxicity profile, a dose of 90 mg/kg, the maximum tolerated dose (MTD) for intravenous injection (IV) of 5-azacytidine, was used to treat ICR mice by intravenous injection to mimic current therapy. The same dose of intratracheal injection (IT) of 5-azacytidine was used to mimic aerosol administration (35). Complete blood count (CBC), creatinine, liver function tests, and pathological evaluation of H/E staining of lungs, kidney and liver were performed to assess for toxicity differences.

ICR mice = experiment: in vivo
Description: as §3

[5] = test system: orthotopic H358 NSCLC model in nude mice; experiment: Antitumor efficacy, orthotopic H358 NSCLC xenograft; assay type: in vivo
Description: as §1

[6] = test system: DAPK and E-cadherin in human NSCLC cell lines A549 and H460; experiment: Demethylation function: re-expression of DAPK and E-cadherin by Western blotting; assay type: cell-based; conditions: 24 hours exposure
Description: DAPK and E-cadherin are important tumor suppressor proteins.

[7] = Aerodynamic size of aerosol droplets (7-Stage Cascade Impactor); assay type: physicochemical; conditions: PARI compressor, LC star nebulizer, airflow 5 L/min
Description: Aerosol equipment. A PARI personal compressor and a LC star nebulizer were used in this study. The pressure should be 20-28 psi, and the aerosol generated rate should be 0.3±0.03 ml/min. Other clinically used aerosol equipment with similar functions can be used as well.
The aerodynamic diameters of aerosol droplets of 5-azacytidine were determined with extrusion-precipitation method using a 7-Stage Cascade Impactor (In-Tox Products, Albuquerque, N. Mex.) linked to PARI's personal compressor and LC star nebulizer system. 5-azacytidine solution (4 ml) was aerosolized under the airflow rate of 5 L/min. The condensed aerosol samples were collected at 3 different periods, from 1 to 1.5 min, from 3 to 3.5 min, and from 5 to 5.5 min. Aerodynamic size and fraction of aerosol with a particular size range were measured and calculated as per manufacturer's protocol. The data was mean±SD of the aerodynamic size based on weight (bars) and cumulative weight (line) from 3 independent experiments.

[8] = IT 2.5 mg/kg every other day for 3 injections
[9] = IV 6.25 mg/kg every day for 6 injections

## Nc1ncn([C@@H]2O[C@H](CO)[C@@H](O)[C@H]2O)c(=O)n1 [5-azacytidine]
[1]; [8]
  median survival: > 109 days
[1]; [9]
  median survival: 80 days
[2]
  IC50: 4 to 14 µg/mL (≈ 16.4 to 57.3 µM)
Lung cancer patients
  partial remission in lung cancer patients: one of 24 lung cancer patients had a partial remission
[3]; other: intratracheal injection, IT, qod×3
  MTD: 37.5 mg/kg
[3]; IV, daily×6
  MTD at 6 days: 37.5 mg/kg
[4]; IT, qod×3
  MTD (total dose): 112.5 mg/m^2
[4]; IV, daily×6
  MTD (total dose): 112.5 mg/m^2
In vivo
  MTD: 90 mg/kg
ICR mice; ICR, mouse, in vivo, iv, 90 mg/kg, 4 day
  highest white blood cell (WBC) reduction: 69±8.3%
ICR mice; IT, 90 mg/kg
  lung toxicity: reversible lung toxicity that peaked on day 7, reduced on day 14
ICR mice; IT, 90 mg/kg, day 7
  highest white blood cell (WBC) reduction: 11±1.0%
ICR mice; IT, Day 7
  Toxicity grade of lungs: 1-2
ICR mice; mouse, in vivo, 90 mg/kg
  hepatic or renal toxicities: no hepatic or renal toxicities
ICR mice; mouse, in vivo, iv, 90 mg/kg
  hepatic or renal toxicities: no hepatic or renal toxicities
[5]; [8]
  median survival: 98 days
[5]; [9]
  median survival: 73 days
[6]
  expressions of DAPK and E-cadherin: significantly enhanced
[7]
  fraction of aerosol droplets measured between 0.2~3 μm in diameter: about 97 % (weight)
